The source of these data is patent US5681833A, “Benzodiazepine derivatives” (Merck, Sharp & Dohme Ltd., priority 1992, dated 1997).

One experiment deals with T1, CCK receptor (brain) (Cavia porcellus, UniProt H0VZC5).
T1 construct: the cortex was removed and homogenized in 25 mL ice-cold 0.32M sucrose; from tissue; host or cells: cortex of male Hartley guinea pigs, P2 membranes
T1 sequence (H0VZC5 1-426): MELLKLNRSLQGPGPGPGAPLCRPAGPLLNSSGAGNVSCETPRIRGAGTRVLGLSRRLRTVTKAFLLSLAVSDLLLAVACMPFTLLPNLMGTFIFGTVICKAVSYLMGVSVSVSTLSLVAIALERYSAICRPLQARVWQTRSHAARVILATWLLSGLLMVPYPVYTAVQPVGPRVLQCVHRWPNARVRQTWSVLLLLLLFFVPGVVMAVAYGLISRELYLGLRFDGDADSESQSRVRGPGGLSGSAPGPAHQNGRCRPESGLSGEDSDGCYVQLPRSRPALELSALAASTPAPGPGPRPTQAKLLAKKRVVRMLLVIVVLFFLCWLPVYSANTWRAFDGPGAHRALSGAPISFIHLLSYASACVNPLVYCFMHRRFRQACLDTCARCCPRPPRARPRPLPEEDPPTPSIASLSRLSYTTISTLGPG
Nature of the experiment: CCK Receptor Binding (Brain), inhibition of specific 125I-CCK-8 binding. Set-up: species or system guinea pig (male Hartley). How it is done: 2. CCK Receptor Binding (Brain)
CCK-8 sulphated was radiolabelled and the binding was performed according to the description for the pancreas method with minor modifications.
Male Hartley guinea pigs (300-500 g) were sacrificed by decapitation and the cortex was removed and homogenized in 25 mL ice-cold 0.32M sucrose. The homogenates were centrifuged at 1000 g for 10 minutes and the resulting supernatant was recentrifuged at 20,000 g for 20 minutes. The P2 pellet was resuspended in binding assay buffer (20mM HEPES, 5 mM MgCl2, 0.25 mg/ml bacitracin, 1 mM EGTA pH 6.5 at 25° C.), using a Teflon (trademark) homogenizer (5 strokes at 500 rpm) to give a final concentration of 10 mg original wet weight/1.2 ml buffer. […] All assays were run in duplicate. The reaction mixtures were incubated at 25° C. for 2 hours and then the reaction was terminated by rapid filtration (Brandell 24 well cell harvester) on Whatman GF/C filters with 3×5 ml washes of cold 100 mM NaCl. The radioactivity on the filters was counted with a LKB gamma counter.

The next experiment concerns the target T2, CCK receptor (pancreas) (Rattus norvegicus, UniProt P30551).
T2 construct: The whole pancreas was dissected free of fat tissue and was homogenized; from tissue; host or cells: whole pancreas of male Sprague-Dawley rats, homogenate membranes
T2 sequence (P30551 1-444): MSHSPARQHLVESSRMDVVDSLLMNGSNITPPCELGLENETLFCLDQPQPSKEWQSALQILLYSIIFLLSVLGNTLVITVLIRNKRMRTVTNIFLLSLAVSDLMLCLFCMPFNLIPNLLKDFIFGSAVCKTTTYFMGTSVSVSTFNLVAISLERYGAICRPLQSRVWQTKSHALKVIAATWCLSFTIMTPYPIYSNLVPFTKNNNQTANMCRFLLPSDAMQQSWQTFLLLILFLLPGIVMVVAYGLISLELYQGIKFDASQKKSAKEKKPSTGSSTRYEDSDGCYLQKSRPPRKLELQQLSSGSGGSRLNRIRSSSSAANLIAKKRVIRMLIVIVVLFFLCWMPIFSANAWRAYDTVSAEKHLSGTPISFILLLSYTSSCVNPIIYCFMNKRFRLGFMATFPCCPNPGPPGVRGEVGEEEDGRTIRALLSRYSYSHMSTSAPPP
Nature of the experiment: CCK Receptor Binding (Pancreas), inhibition of specific 125I-CCK-8 binding. Also on record: species or system rat (male Sprague-Dawley). As to the method: 1. CCK Receptor Binding (Pancreas)
CCK-8 sulphated was radiolabelled with ^125 I-Bolton Hunter reagent (2000 Ci/mmole). Receptor binding was performed according to Chang and Lotti (Proc. Natl. Acad. Sci. 83, 4923-4926, 1986) with minor modifications.
Male Sprague-Dawley rats (150-200 g) were sacrificed by decapitation. The whole pancreas was dissected free of fat tissue and was homogenized in 25 volumes of ice-cold 10 mM N-2-hydroxyethyl-piperazine-N'-2-ethane sulphonic acid (HEPES) buffer with 0.1% soya bean trypsin inhibitor (pH 7.4 at 25° C.) with a Kinematica Polytron. The homogenates were centrifuged at 47,800 g for 10 min. Pellets were resuspended in 10 volumes of binding assay buffer (20 mM (HEPES)), 1 mM ethylene glycol-bis-(β-aminoethylether-N,N'-tetraacetic acid) (EGTA), 5 mM MgCl2, 150 mM NaCl, bacitracin 0.25 mg/ml, soya bean trypsin inhibitor 0.1 mg/ml, and bovine serum albumin 2 mg/ml pH 6.5 at 25° C.) using a Teflon (trademark) homogenizer, 15 strokes at 500 rpm. The homogenate was further diluted in binding assay buffer to give a final concentration of 0.5 mg original wet weight/1 ml buffer. […] All assays were run in duplicate. The reaction mixtures were incubated at 25° C. for 2 hours and the reaction terminated by rapid filtration (Brandell 24 well cell harvester) over Whatman GF/C filters, washing 3×4 mls with ice-cold 100 Mm NaCl. The radioactivity on the filters was counted with a LKB gamma counter.

Read-outs that look alike come from different tables or passages of the source. Bounds are passed on as bounds.

A word on the IC50: it is the point on the concentration scale where inhibition reaches its midpoint. As to `Cc1ccc(NC(=O)N[C@@H]2N=C(C3CCCCC3)c3ccccc3N(C)C2=O)cc1Nc1nnn[nH]1` [Example 10, (+)-N-[3(R)-5-Cyclohexyl-2,3-dihydro-1-methyl-2-oxo-1H-1,4-benzodiazepin-3-yl]-N'-[4-methyl-3-{(tetrazol-5-yl)amino}phenyl]urea], the half-maximal inhibitory concentration (IC50) at CCK receptor (brain) (guinea pig cortex membranes, 50 pM 125I-CCK-8, 25° C., 2 hours, pH 6.5, read-out: IC50 125I-CCK Brain) was 0.042 nM; at CCK receptor (pancreas) (rat pancreas membranes, 50 pM 125I-CCK-8, 25° C., 2 hours, pH 6.5, read-out: IC50 125I-CCK Pancreas), 802 nM.
As to `Cc1ccc(NC(=O)N[C@@H]2N=C(c3ccccc3)c3ccccc3N(C)C2=O)cc1Nc1nn[nH]n1` [Example 12, (+)-N-[3(R)-2,3-Dihydro-1-methyl-2-oxo-5-phenyl-1H-1,4-benzodiazepin-3-yl]-N'-[4-methyl-3-{(tetrazol-5-yl)amino}phenyl]urea], the IC50 at CCK receptor (brain) is 1.09 nM; on CCK receptor (pancreas) it was greater than 3000 nM.
